# Laboratory results published in patent US8937078B2, “Quinazolinones as prolyl hydroxylase inhibitors” (Janssen Pharmaceutica NV, priority 2009, dated 2015).
# Assays:
# human PHD2 (PHD2181-417) = molecular target: T1, human PHD2 (PHD2181-417) (Homo sapiens, UniProt Q9GZT9); experiment: PHD enzymatic assay ([14C]-succinic acid production); assay type: biochemical; details: PHD2181-417, HIF-1α peptide 10 μM, average of results; read-out: Enzyme pIC50 (converted)
# T1 construct: Smt (SUMO) tag (cleaved yes); made in house; host or cells: E. coli BL21 (pBAD vector)
# T1 sequence (Q9GZT9 181-417): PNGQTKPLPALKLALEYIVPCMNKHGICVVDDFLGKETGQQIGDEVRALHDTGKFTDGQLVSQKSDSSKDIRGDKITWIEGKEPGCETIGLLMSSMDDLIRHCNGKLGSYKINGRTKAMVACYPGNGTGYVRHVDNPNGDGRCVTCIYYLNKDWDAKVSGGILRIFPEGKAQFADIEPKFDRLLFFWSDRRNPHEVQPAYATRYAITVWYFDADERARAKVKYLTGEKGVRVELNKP
# In short: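 Activity measured as [14C]-succinic acid formed from [5-14C]-2-oxoglutarate over 10 minutes, with peptide substrate at 10 μM, in Tris-HCl pH 7.5 buffer containing catalase, DTT and ascorbate. Unreacted oxoglutarate removed by DNP derivatisation; supernatant beta-counted.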
# Hep-3B cells = experiment: Cellular assay: erythropoietin secretion in Hep-3B cells; assay type: cell-based, human; details: Homo sapiens, Hep3B, 100 μM compound, 24 hours, percent of EPO secretion relative to assay control compound 7-[(4-Chloro-phenyl)-(5-methyl-isoxazol-3-ylamino)-methyl]-quinolin-8-ol, read-out: Cellular % EPO Stimulation
# In short: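 Hep-3B cells in DMEM with 10% FBS, treated 24 h after plating with compounds at 100 μM final for a further 24 h. Secreted EPO in supernatant measured by MSD electrochemiluminescence sandwich immunoassay with anti-EPO detection antibody.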
compound,measurement,setting,value
"Cc1ccc(Oc2cc3c(=O)[nH]c(-n4cc(C(=O)O)cn4)nc3cc2C)cc1C [Example 92, 1-[6-(3,4-dimethyl-phenoxy)-7-methyl-4-oxo-3,4-dihydro-quinazolin-2-yl]-1H-pyrazole-4-carboxylic acid]",IC50,human PHD2 (PHD2181-417),20 nM
same,Emax at 100 µM,Hep-3B cells,137%
"Cc1cc2nc(-n3cc(C(=O)O)cn3)[nH]c(=O)c2cc1Oc1cccc(C(F)(F)F)c1 [Example 93, 1-[7-methyl-4-oxo-6-(3-trifluoromethyl-phenoxy)-3,4-dihydro-quinazolin-2-yl]-1H-pyrazole-4-carboxylic acid]",IC50,human PHD2 (PHD2181-417),20 nM
same,Emax at 100 µM,Hep-3B cells,153%
"Cc1cc(C)cc(Oc2cc3c(=O)[nH]c(-n4cc(C(=O)O)cn4)nc3cc2F)c1 [Example 94, 1-[6-(3,5-dimethyl-phenoxy)-7-fluoro-4-oxo-3,4-dihydro-quinazolin-2-yl]-1 H-pyrazole-4-carboxylic acid]",IC50,human PHD2 (PHD2181-417),20 nM
same,Emax at 100 µM,Hep-3B cells,90%
"O=C(O)c1cnn(-c2nc3cc(F)c(Oc4cccc(C(F)(F)F)c4)cc3c(=O)[nH]2)c1 [Example 95, 1-[7-fluoro-4-oxo-6-(3-trifluoromethyl-phenoxy)-3,4-dihydro-quinazolin-2-yl]-1H-pyrazole-4-carboxylic acid]",IC50,human PHD2 (PHD2181-417),20 nM
same,Emax at 100 µM,Hep-3B cells,61%
"O=C(O)c1cnn(-c2nc3ccc(Oc4cccc(C(F)(F)F)c4F)cc3c(=O)[nH]2)c1 [Example 96, 1-[6-(2-fluoro-3-trifluoromethyl-phenoxy)-4-oxo-3,4-dihydro-quinazolin-2-yl]-1H-pyrazole-4-carboxylic acid]",IC50,human PHD2 (PHD2181-417),25.1 nM
same,Emax at 100 µM,Hep-3B cells,51%
"O=C(O)c1cnn(-c2nc3ccc(Oc4cc(F)cc(C(F)(F)F)c4)cc3c(=O)[nH]2)c1 [Example 97, 1-[6-(3-fluoro-5-trifluoromethyl-phenoxy)-4-oxo-3,4-dihydro-quinazolin-2-yl]-1H-pyrazole-4-carboxylic acid]",IC50,human PHD2 (PHD2181-417),20 nM
same,Emax at 100 µM,Hep-3B cells,37%
"Cc1cc(C)cc(Oc2ccc3nc(-n4cc(C(=O)O)cn4)[nH]c(=O)c3c2)c1 [Example 98, 1-[6-(3,5-dimethyl-phenoxy)-4-oxo-3,4-dihydro-quinazolin-2-yl]-1H-pyrazole-4-carboxylic acid]",IC50,human PHD2 (PHD2181-417),20 nM
same,Emax at 100 µM,Hep-3B cells,85%
"O=C(O)c1cnn(-c2nc3ccc(Oc4cccc(-c5ccccc5)c4)cc3c(=O)[nH]2)c1 [Example 99, 1-[6-(biphenyl-3-yloxy)-4-oxo-3,4-dihydro-quinazolin-2-yl]-1H-pyrazole-4-carboxylic acid]",IC50,human PHD2 (PHD2181-417),25.1 nM
same,Emax at 100 µM,Hep-3B cells,81%
"O=C(O)c1cnn(-c2nc3ccc(Oc4cccc(C(F)(F)F)c4)cc3c(=O)[nH]2)c1 [Example 100, 1-[4-oxo-6-(3-trifluoromethyl-phenoxy)-3,4-dihydro-quinazolin-2-yl]-1H-pyrazole-4-carboxylic acid]",IC50,human PHD2 (PHD2181-417),25.1 nM
same,Emax at 100 µM,Hep-3B cells,55%
"O=C(O)c1cnn(-c2nc3cc(F)c(Oc4c(Cl)cccc4Cl)c(F)c3c(=O)[nH]2)c1 [Example 101, 1-[6-(2,6-dichloro-phenoxy)-5,7-difluoro-4-oxo-3,4-dihydro-quinazolin-2-yl]-1H-pyrazole-4-carboxylic acid]",IC50,human PHD2 (PHD2181-417),25.1 nM
same,Emax at 100 µM,Hep-3B cells,24%
"O=C(O)c1cnn(-c2nc3ccc(OC4CCCCC4)cc3c(=O)[nH]2)c1 [Example 102, 1-(6-cyclohexyloxy-4-oxo-3,4-dihydro-quinazolin-2-yl)-1H-pyrazole-4-carboxylic acid]",IC50,human PHD2 (PHD2181-417),20 nM
same,Emax at 100 µM,Hep-3B cells,59%
"CN1CCN(c2ccc3nc(-n4cc(C(=O)O)cn4)[nH]c(=O)c3c2)CC1 [Example 103, 1-[6-(4-methyl-piperazin-1-yl)-4-oxo-3,4-dihydro-quinazolin-2-yl]-1H-pyrazole-4-carboxylic acid]",IC50,human PHD2 (PHD2181-417),63.1 nM
same,Emax at 100 µM,Hep-3B cells,30%
"CC(C)Oc1ccc2nc(-n3cc(C(=O)O)cn3)[nH]c(=O)c2c1 [Example 104, 1-(6-isopropoxy-4-oxo-3,4-dihydro-quinazolin-2-yl)-1H-pyrazole-4-carboxylic acid]",IC50,human PHD2 (PHD2181-417),31.6 nM
same,Emax at 100 µM,Hep-3B cells,75%
"O=C(O)c1cnn(-c2nc3ccc(Cc4ccccc4)cc3c(=O)[nH]2)c1 [Example 105, 1-(6-benzyl-4-oxo-3,4-dihydro-quinazolin-2-yl)-1H-pyrazole-4-carboxylic acid]",IC50,human PHD2 (PHD2181-417),31.6 nM
same,Emax at 100 µM,Hep-3B cells,129%
"O=C(O)c1cnn(-c2nc3ccc(-c4ccccc4)cc3c(=O)[nH]2)c1 [Example 106, 1-(4-oxo-6-phenyl-3,4-dihydro-quinazolin-2-yl)-1H-pyrazole-4-carboxylic acid]",IC50,human PHD2 (PHD2181-417),31.6 nM
same,Emax at 100 µM,Hep-3B cells,129%
"O=C(O)c1cnn(-c2nc3ccc(N4CCOCC4)cc3c(=O)[nH]2)c1 [Example 107, 1-(6-morpholin-4-yl-4-oxo-3,4-dihydro-quinazolin-2-yl)-1H-pyrazole-4-carboxylic acid]",IC50,human PHD2 (PHD2181-417),39.8 nM
same,Emax at 100 µM,Hep-3B cells,45%
"O=C(O)c1cnn(-c2nc3ccc(-c4ccc5cc[nH]c5c4)cc3c(=O)[nH]2)c1 [Example 108, 1-[6-(1H-Indol-6-yl)-4-oxo-3,4-dihydro-quinazolin-2-yl]-1H-pyrazole-4-carboxylic acid]",IC50,human PHD2 (PHD2181-417),25.1 nM
same,Emax at 100 µM,Hep-3B cells,85%
"O=C(O)c1cnn(-c2nc3ccc(C4CC4)cc3c(=O)[nH]2)c1 [Example 109, 1-(6-Cyclopropyl-4-oxo-3,4-dihydro-quinazolin-2-yl)-1H-pyrazole-4-carboxylic acid]",IC50,human PHD2 (PHD2181-417),25.1 nM
same,Emax at 100 µM,Hep-3B cells,100%
"O=C(O)c1cnn(-c2nc3cc(F)c(C4CCCCC4)cc3c(=O)[nH]2)c1 [Example 110, 1-(6-Cyclohexyl-7-fluoro-4-oxo-3,4-dihydro-quinazolin-2-yl)-1H-pyrazole-4-carboxylic acid]",IC50,human PHD2 (PHD2181-417),158 nM
same,Emax at 100 µM,Hep-3B cells,47%
"O=C(O)c1cnn(-c2nc3c(-c4ccccc4)cccc3c(=O)[nH]2)c1 [Example 111, 1-(4-Oxo-8-phenyl-3,4-dihydro-quinazolin-2-yl)-1H-pyrazole-4-carboxylic acid]",IC50,human PHD2 (PHD2181-417),126 nM
same,Emax at 100 µM,Hep-3B cells,24%
"O=C(O)c1cnn(-c2nc3c(Oc4ccccc4)cccc3c(=O)[nH]2)c1 [Example 112, 1-(4-Oxo-8-phenoxy-3,4-dihydro-quinazolin-2-yl)-1H-pyrazole-4-carboxylic acid]",IC50,human PHD2 (PHD2181-417),158 nM
same,Emax at 100 µM,Hep-3B cells,18%
"O=C(O)c1cnn(-c2nc3c(Sc4ccccc4)cccc3c(=O)[nH]2)c1 [Example 113, 1-(4-Oxo-8-phenylsulfanyl-3,4-dihydro-quinazolin-2-yl)-1H-pyrazole-4-carboxylic acid]",IC50,human PHD2 (PHD2181-417),200 nM
same,Emax at 100 µM,Hep-3B cells,17%
"CC(C)c1cccc2c(=O)[nH]c(-n3cc(C(=O)O)cn3)nc12 [Example 114, 1-(8-Isopropyl-4-oxo-3,4-dihydro-quinazolin-2-yl)-1H-pyrazole-4-carboxylic acid]",IC50,human PHD2 (PHD2181-417),251 nM
same,Emax at 100 µM,Hep-3B cells,16%
"CC(C)(C)c1cccc2c(=O)[nH]c(-n3cc(C(=O)O)cn3)nc12 [Example 115, 1-(8-tert-Butyl-4-oxo-3,4-dihydro-quinazolin-2-yl)-1H-pyrazole-4-carboxylic acid]",IC50,human PHD2 (PHD2181-417),158 nM
same,Emax at 100 µM,Hep-3B cells,27%
"O=C(O)c1cnn(-c2nc3c(F)ccc(F)c3c(=O)[nH]2)c1 [Example 116, 1-(5,8-Difluoro-4-oxo-3,4-dihydro-quinazolin-2-yl)-1H-pyrazole-4-carboxylic acid]",IC50,human PHD2 (PHD2181-417),200 nM
same,Emax at 100 µM,Hep-3B cells,17%
